System: DU 145 cells
Assay: Clonogenic survival after ionizing radiation
Assay type: cell-based, human
Details: DU 145, 10 μM, one hour before and 24 hours after irradiation, vs DMSO

Compound	DRF, ionizing radiation (DRF at 80% clonogenic cell killing)	DRF, ionizing radiation
O=c1cc(N2CCOCC2)oc2c(-c3ccccc3)cccc12 [LY294002]	1.1	
COC[C@H]1OC(=O)c2coc3c2[C@@]1(C)C1=C(C3=O)[C@@H]2CCC(=O)[C@@]2(C)C[C@H]1OC(C)=O [Wortmannin]		1.4

From patent publication US20050245472A1, “Engineered rnai adenovirus silencing expression (erase) of dna reair proteins” (The Johns Hopkins University, priority 2003, published 2005)
